From PubChem BioAssay AID1918957 (Molecular Pharmacology Branch, DTP, NCI, 2023)
pIC50: −log10 of the molar value.

System: NCI-H1876 complex spheroid viability
Experiment: Anticancer human tumor NCI-H1876 cell line growth inhibition [LSD1];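 note: spheroids exposed to compounds for one week before readout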;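 for viability, T/C: 100% = DMSO vehicle-treated spheroids so lower means fewer viable cells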
Conditions: for pIC50: curve of first compound; for viability, T/C: stronger effect = lower value
Source text: Multicellular complex tumor spheroid response to LSD1 Inhibitor Iadademstat in combination with a variety of drugs and investigational agents in selected tumor cell lines
The current study was undertaken to assess response to LSD1 inhibitors in combination with standard-of-care drugs and investigational agents in solid tumor complex spheroid models as well as in the K-562 leukemia. Complex spheroids include a stromal component modeled by human endothelial cells (HUVEC) and fibroblasts modeled by human mesenchymal stem cells (MSCs). The concentration ranges selected for each drug and investigational agent were based upon clinically achievable concentrations if the clinical Cmax of the agent was known.
Compounds. The drugs and investigational agents used in this study are listed on Table 1. All of the agents used, including staurosporine (NSC755774) and gemcitabine (NSC613327), were obtained from the Developmental Therapeutics Program, NCI. FDA-approved anticancer drugs are available from the NCI at http://dtp.nci.nih.gov/branches/dscb/oncology_drugset_explanation.html. Drugs and investigational agents were >95% pure by proton nuclear magnetic resonance (NMR) and liquid chromatography/mass spectrometry (LC/MS). Stock solutions were prepared at 400x in DMSO, stored at -70 degrees C, and diluted in fresh medium prior to their use. The final concentration of DMSO in cell culture wells never exceeded 0.25% (v/v). The FDA-approved anticancer drug set is available from the Developmental Therapeutics Program at https://dtp.cancer.gov/organization/dscb/obtaining/available_plates.htm. All drugs and investigational agents were tested over a range starting from a high concentration at or near the clinical Cmax and decreasing in half-log increments. If the clinical Cmax for an agent had not been determined, the highest concentration tested was 10 microM.
Cell Lines. The patient-derived cancer cell (PDC) lines: 292921-168-R-J2-PDC, K24384-001-R-PDC, and 521955-158-R2-J5-PDC pancreatic carcinomas, 556581-035-R-J1 ovarian carcinoma, 324938-238-R-J1-PDC, 855422-203-R-J1-PDC and 883617-216-R-J1-PDC urothelial bladder carcinomas, 743489-274-T-PDC renal cell carcinoma, 138582-R-J1 Merkel cell tumor, K60290-347-R-J1 and K57222-313-R-J1-PDC glioblastomas, 653999-131-R-J2-PDC, LG0703-F948-PDC, and 349418-098-R-PDC non-small cell lung carcinomas, 885512-296-R-J2-PDC, 171881-019-R-J1-PDC breast carcinomas and 186277-243-T-J2-PDC and 233499-124-R-J2-PDC colon carcinomas were obtained from the NCI Patient-Derived Models Repository (PDMR, https://pdmr.cancer.gov). The established cell lines NCI/ADR-RES (RRID:CVCL_14520 and OVCAR-5 (RRID:CVCL_1628) ovarian carcinomas, 786-O (RRID:CVCL_1051) and A498 (RRID:CVCL_A498) renal cell carcinoma, NCI-H211 (ATCC, cat. CRL-5824; RRID:CVCL_1529), NCI-H196 (ATCC, cat. CRL-5823, RRID:CVCL_1509), SW 1271 (ATCC, cat. CRL-2177, RRID:CVCL_1716) and NCI-H1876 (ATCC, cat. CRL-5902, RRID:CVCL_1503) small cell lung carcinomas, MDA-MB-231 (RRID:CVCL_0062) and MDA-MB-468 (RRID:CVCL_0419)breast carcinomas (10-12). Pooled donor human umbilical vein endothelial cells (HUVEC, Lonza, cat. CC-2519) and human mesenchymal stem cells (hMSC, Lonza, cat. PT-2501) were purchased from Lonza (Walkersville, MD).
Cell Culture. All cells were maintained in an incubator at 37 degrees C and 5% CO2 with 95% humidity. The PDC lines were cultured according to standard operating procedures established by the NCI PDMR (https://pdmr.cancer.gov). Briefly all PDCs were thawed and cultured in Matrigel-coated flasks prepared with a working solution of 1X Ham's F-12 nutrient mix, without supplementation (Invitrogen, Waltham, MA, cat. 11765054), 100 U/mL penicillin-streptomycin (Invitrogen, cat. 15140122), and 2.5% Matrigel (Corning Inc., Corning, NY, cat. 354248) for the first three passages. […]

[1] = second compound 0.1 µM, first compound 0.0316 µM
[2] = second compound 0.1 µM, first compound 0.1 µM
[3] = second compound 0.1 µM, first compound 0.316 µM
[4] = second compound 0.1 µM, first compound 1 µM
[5] = second compound 0.1 µM, first compound 3.16 µM
[6] = second compound 0.1 µM, first compound 10 µM
[7] = second compound 0.316 µM, first compound 0.0316 µM
[8] = second compound 0.316 µM, first compound 0.1 µM
[9] = second compound 0.316 µM, first compound 0.316 µM
[10] = second compound 0.316 µM, first compound 1 µM
[11] = second compound 0.316 µM, first compound 3.16 µM
[12] = second compound 0.316 µM, first compound 10 µM
[13] = second compound 1 µM, first compound 0.0316 µM
[14] = second compound 1 µM, first compound 0.1 µM
[15] = second compound 1 µM, first compound 0.316 µM
[16] = second compound 1 µM, first compound 1 µM
[17] = second compound 1 µM, first compound 3.16 µM
[18] = second compound 1 µM, first compound 10 µM
[19] = second compound 3.16 µM, first compound 0.0316 µM
[20] = second compound 3.16 µM, first compound 0.1 µM
[21] = second compound 3.16 µM, first compound 0.316 µM
[22] = second compound 3.16 µM, first compound 1 µM
[23] = second compound 3.16 µM, first compound 3.16 µM
[24] = second compound 3.16 µM, first compound 10 µM
[25] = second compound 10 µM, first compound 0.0316 µM
[26] = second compound 10 µM, first compound 0.1 µM
[27] = second compound 10 µM, first compound 0.316 µM
[28] = second compound 10 µM, first compound 1 µM
[29] = second compound 10 µM, first compound 3.16 µM
[30] = second compound 10 µM, first compound 10 µM
[31] = second compound 0.1 µM, first compound 0.00316 µM
[32] = second compound 0.1 µM, first compound 0.01 µM
[33] = second compound 0.316 µM, first compound 0.00316 µM
[34] = second compound 0.316 µM, first compound 0.01 µM
[35] = second compound 1 µM, first compound 0.00316 µM
[36] = second compound 1 µM, first compound 0.01 µM
[37] = second compound 3.16 µM, first compound 0.00316 µM
[38] = second compound 3.16 µM, first compound 0.01 µM
[39] = second compound 10 µM, first compound 0.00316 µM
[40] = second compound 10 µM, first compound 0.01 µM

Row | Structure (SMILES) | pIC50 (second compound 0.1 µM) | pIC50 (second compound 0.316 µM) | pIC50 (second compound 1 µM) | pIC50 (second compound 3.16 µM) | pIC50 (second compound 10 µM) | viability, T/C [1] | viability, T/C [2] | viability, T/C [3] | viability, T/C [4] | viability, T/C [7] | viability, T/C [8] | viability, T/C [9] | viability, T/C [10] | viability, T/C [13] | viability, T/C [14] | viability, T/C [15] | viability, T/C [19] | viability, T/C [20] | viability, T/C [25] | viability, T/C [26] | further results
1 | CC(C)c1c(-c2ccccc2)nc2c(C#N)c[nH]n2c1=O + NC1CCC(NC2CC2c2ccccc2)CC1 | 5.15 | 5.14 | 5.17 | 5.21 | 5.21 | 100% | 97.1% | 109% | 97% | 90.2% | 106% | 103% | 88.9% | 97.1% | 101% | 99.8% | 99% | 106% | 89.4% | 93.6% | viability, T/C [5]: 94.2%; viability, T/C [6]: 30.1%; viability, T/C [11]: 93.1%; viability, T/C [12]: 32.4%; viability, T/C [16]: 95.1%; viability, T/C [17]: 89.7%; viability, T/C [18]: 30.7%; viability, T/C [21]: 102%; viability, T/C [22]: 92%; viability, T/C [23]: 88.2%; viability, T/C [24]: 22.5%; viability, T/C [27]: 92.6%; viability, T/C [28]: 99.3%; viability, T/C [29]: 90.5%; viability, T/C [30]: 21.3%
2 | Cn1ncnc1C1c2n[nH]c(=O)c3cc(F)cc(c23)NC1c1ccc(F)cc1 (stereo not given) + NC1CC1c1ccc(-c2cccc(O)c2)cc1 | < 7.00 | < 7.00 | < 7.00 | < 7.00 | < 7.00 | 92% | 90% |  |  | 107% | 90.1% |  |  | 96.2% | 87.8% |  | 90.2% | 92.9% | 89.7% | 78.8% | viability, T/C (second compound 0.1 µM, first compound 0.000316 µM): 112%; viability, T/C (second compound 0.1 µM, first compound 0.001 µM): 113%; viability, T/C [31]: 111%; viability, T/C [32]: 97.9%; viability, T/C (second compound 0.316 µM, first compound 0.000316 µM): 108%; viability, T/C (second compound 0.316 µM, first compound 0.001 µM): 106%; viability, T/C [33]: 110%; viability, T/C [34]: 97.4%; viability, T/C (second compound 1 µM, first compound 0.000316 µM): 108%; viability, T/C (second compound 1 µM, first compound 0.001 µM): 115%; viability, T/C [35]: 108%; viability, T/C [36]: 106%; viability, T/C (second compound 3.16 µM, first compound 0.000316 µM): 109%; viability, T/C (second compound 3.16 µM, first compound 0.001 µM): 110%; viability, T/C [37]: 102%; viability, T/C [38]: 104%; viability, T/C (second compound 10 µM, first compound 0.000316 µM): 107%; viability, T/C (second compound 10 µM, first compound 0.001 µM): 102%; viability, T/C [39]: 95.5%; viability, T/C [40]: 96.7%
3 | O=C(c1cc(Cc2n[nH]c(=O)c3ccccc23)ccc1F)N1CCN(C(=O)C2CC2)CC1 + NC1CCC(NC2CC2c2ccccc2)CC1 | 5.18 | 5.21 | 5.21 | 5.27 | 5.30 | 90.7% | 99.4% | 89.4% | 94.8% | 99.2% | 93% | 89.4% | 87.2% | 90.2% | 93% | 91.5% | 90.7% | 95.4% | 95.7% | 90.6% | viability, T/C [5]: 76.2%; viability, T/C [6]: 35.4%; viability, T/C [11]: 69.5%; viability, T/C [12]: 35.5%; viability, T/C [16]: 79.7%; viability, T/C [17]: 70.5%; viability, T/C [18]: 35.8%; viability, T/C [21]: 86.7%; viability, T/C [22]: 86.7%; viability, T/C [23]: 64.5%; viability, T/C [24]: 32.7%; viability, T/C [27]: 85.9%; viability, T/C [28]: 79.8%; viability, T/C [29]: 64.6%; viability, T/C [30]: 29.9%
4 | Nc1ncn(C2CC(O)C(CO)O2)c(=O)n1 (stereo not given) + NC1CC1c1ccc(-c2cccc(O)c2)cc1 | < 6.00 | < 6.00 | < 6.00 | < 6.00 | < 6.00 | 105% | 98.6% | 91% | 101% | 105% | 99% | 96% | 94.3% | 106% | 102% | 104% | 107% | 99.1% | 103% | 108% | viability, T/C [31]: 109%; viability, T/C [32]: 103%; viability, T/C [33]: 113%; viability, T/C [34]: 110%; viability, T/C [35]: 106%; viability, T/C [36]: 114%; viability, T/C [16]: 101%; viability, T/C [37]: 106%; viability, T/C [38]: 113%; viability, T/C [21]: 94.3%; viability, T/C [22]: 89.8%; viability, T/C [39]: 109%; viability, T/C [40]: 107%; viability, T/C [27]: 93.4%; viability, T/C [28]: 92.1%
